Laboratory results from patent US20210205389A1, “METHODS AND COMPOSITIONS FOR TREATING NON-SMALL CELL LUNG CANCER” (Chang Gung Medical Foundation Keelung Chang Gung Memorial …, priority 2015, published 2021).

What was measured:
[1] = tested on: CL97 (gefitinib resistance cell line) xenograft; test: CL97 xenograft tumor study; assay type: in vivo, NOD/SCID mice; conditions: oral; Gefitinib 100 mg/kg 2 times/week; C1 1 g/kg, C2 600 mg/kg, C3 150 mg/kg 5 days/week; 10 weeks
Method: Human lung cancer cell line CL97 (obtained from Dr. Pan-Chyr Yang's lab, 1 million cells/injection) were subcutaneously injected into the right flank of NOD/SCID mice (female, 4-6 weeks old) and allowed one-two week for tumor growth. […] Over the period of 10 weeks, tumorigenesis in both groups was measured using a caliper on a weekly basis. The change in tumor size was expressed as in fold change and plotted over time.

[2] = tested on: HUVEC cells; test: Tube formation assay; assay type: cell-based; conditions: sorafenib 10 μM (positive control)
Method: Tube formation assay was used to test the inhibitory effect of Composition 3 (400 and 600 μg/ml) in HUVEC cells. Treatment of sorafenib was used as a positive control. […] All samples were assayed in triplicate. Four images were taken per well of a 96-well plate at 10×. The data were quantitated by calculating the pentagonal ring or hexagonal ring loop numbers of each well and used solvent control (DMSO) as 100%.
In addition to the study of the immune modulator role of Composition 3, whether Composition 3 might affect angiogenesis was also studied. To investigate the anti-angiogenesis ability of Composition 3, the effect of Composition 3 on HUVEC cells tube formation was first tested. In the normal condition, HUVEC cells will arrange into pentagon or hexagon shape in matrigel to form a tube.

## COc1cc2ncnc(Nc3ccc(F)c(Cl)c3)c2cc1OCCCN1CCOCC1 [Gefitinib]
[1]
  Tumor reduction (%): 8.8%

## CNC(=O)c1cc(Oc2ccc(NC(=O)Nc3ccc(Cl)c(C(F)(F)F)c3)cc2)ccn1 [sorafenib]
[2]
  number of complete pentagon or hexagon tube: significant decreased
